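All cell lines were grown in 96-well plates and treated with compound for 48 hours. Definition used: TGI = concentration required for complete inhibition of growth.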

We go through 8 compounds from PubChem BioAssay (NCI).

Some test systems named below: LOX IMVI melanoma; OVCAR-8 ovarian; MALME-3M melanoma; DU-145 prostate; NCI-H522 lung; SK-MEL-28 melanoma; U251 CNS; HS 578T breast; RPMI-8226 leukemia; HCT-116 colon; TK-10 renal; BT-549 breast; OVCAR-5 ovarian; KM12 colon; SK-OV-3 ovarian; HCC-2998 colon; OVCAR-4 ovarian; MCF7 breast; SF-539 CNS.
Holding throughout (assay): DTP human tumour cell line panel, 48 h

As for `CCOC(=O)c1cc(C2CCN(c3ccccc3)C2=O)c(C(=O)/C=C(/C)N)[nH]1` (stereo unspecified), the TGI with LOX IMVI melanoma is more than 100 µM; with OVCAR-8 ovarian, more than 100 µM; in the experiment on MALME-3M melanoma, 35.6 µM; in the experiment with DU-145 prostate, more than 100 µM; in the experiment with NCI-H522 lung it was 53.1 µM; in the experiment on SK-MEL-28 melanoma, more than 100 µM. For the same compound, the TGI with U251 CNS was 36.4 µM; in the experiment on HS 578T breast, 46.3 µM; in the experiment with RPMI-8226 leukemia it was more than 100 µM; in the experiment with HCT-116 colon, 27.9 µM; in the experiment with TK-10 renal it was more than 100 µM; in the experiment with BT-549 breast, more than 100 µM. Besides, the TGI was more than 100 µM in the experiment on OVCAR-5 ovarian; more than 100 µM with KM12 colon; 50.7 µM in the experiment on SK-OV-3 ovarian; more than 100 µM with HCC-2998 colon; more than 100 µM with OVCAR-4 ovarian; more than 100 µM in the experiment on MCF7 breast.

On to `CCOC(=O)C(C)c1nc2ccc(C(F)(F)F)cc2[nH]c1=O` (stereo unspecified), for which the TGI in the experiment on LOX IMVI melanoma, with OVCAR-8 ovarian, in the experiment with MALME-3M melanoma, in the experiment on DU-145 prostate, with SK-MEL-28 melanoma and in the experiment on U251 CNS was more than 100 µM in each case. For the same compound, the TGI with HS 578T breast, in the experiment on RPMI-8226 leukemia, in the experiment with HCT-116 colon, with TK-10 renal, in the experiment on BT-549 breast and in the experiment on OVCAR-5 ovarian was more than 100 µM in each case. The TGI in the experiment on KM12 colon, in the experiment on SK-OV-3 ovarian, in the experiment on HCC-2998 colon, in the experiment with OVCAR-4 ovarian, with MCF7 breast and in the experiment with SF-539 CNS was more than 100 µM each time.

For `CO[C@@H]1C[C@H](OC(N)=O)[C@@H]2C=C[C@@H]3/C=C(C)/C=C/[C@@H](C)[C@H](/C(C)=C/[C@@H](C)NC(C)=O)OC(=O)/C=C/C=C(C)\C=C\[C@]3(C)[C@@H]2C1`, the TGI in the experiment on LOX IMVI melanoma came out at 0.00689 µM; with OVCAR-8 ovarian, 50 µM; in the experiment with MALME-3M melanoma, 0.798 µM; in the experiment with DU-145 prostate it was 2.43 µM; in the experiment with NCI-H522 lung it was 0.103 µM; in the experiment with SK-MEL-28 melanoma, 0.458 µM. Moreover, the TGI turned out to be 0.375 µM with U251 CNS; 0.0455 µM in the experiment on HS 578T breast; 0.353 µM in the experiment with RPMI-8226 leukemia; 0.107 µM with HCT-116 colon; 12 µM in the experiment with BT-549 breast; 3.63 µM in the experiment on OVCAR-5 ovarian. Further, the TGI in the experiment with KM12 colon turned out to be 0.163 µM; in the experiment with SK-OV-3 ovarian it was 0.192 µM; in the experiment on HCC-2998 colon, 0.664 µM; in the experiment on OVCAR-4 ovarian it was 11.4 µM; with MCF7 breast, 17 µM; in the experiment with SF-539 CNS, 0.0846 µM.

For the compound `CC/C=C/C[C@H](O)[C@H]1C[C@H]2O[C@H](CC(=O)OC)C[C@H]2O1`, the TGI with LOX IMVI melanoma, in the experiment with OVCAR-8 ovarian, in the experiment with MALME-3M melanoma, in the experiment with DU-145 prostate, with NCI-H522 lung and in the experiment on SK-MEL-28 melanoma was more than 100 µM throughout. The TGI in the experiment with U251 CNS, in the experiment with HS 578T breast, in the experiment on RPMI-8226 leukemia, in the experiment on HCT-116 colon, in the experiment on BT-549 breast and in the experiment with OVCAR-5 ovarian was more than 100 µM each time. In addition, the TGI with KM12 colon, with SK-OV-3 ovarian, with HCC-2998 colon, in the experiment with OVCAR-4 ovarian and in the experiment with MCF7 breast was more than 100 µM throughout.

Regarding `Cc1ccc(S(=O)(=O)N/N=C2/CC3CCC4CC2CC34)cc1` (stereo unspecified), the TGI in the experiment with LOX IMVI melanoma, with OVCAR-8 ovarian, with MALME-3M melanoma, in the experiment with DU-145 prostate, in the experiment on NCI-H522 lung and with SK-MEL-28 melanoma was more than 100 µM throughout. For the same compound, the TGI in the experiment on U251 CNS, in the experiment on HS 578T breast, in the experiment on RPMI-8226 leukemia, with HCT-116 colon, in the experiment on TK-10 renal and in the experiment on BT-549 breast was more than 100 µM each time. Besides, the TGI in the experiment on OVCAR-5 ovarian, with KM12 colon, with SK-OV-3 ovarian, in the experiment on HCC-2998 colon, with MCF7 breast and in the experiment with SF-539 CNS was more than 100 µM in each case.

For the compound `CC(C)(C)OC(=O)Cn1ncn(NC(=O)Cc2ccccc2)c1=O`, the TGI in the experiment with LOX IMVI melanoma, in the experiment with OVCAR-8 ovarian, in the experiment with MALME-3M melanoma, in the experiment with DU-145 prostate, in the experiment on NCI-H522 lung and in the experiment with SK-MEL-28 melanoma was more than 10 µM throughout. In addition, the total growth inhibition concentration (TGI) with U251 CNS, with HS 578T breast, in the experiment with HCT-116 colon, in the experiment on TK-10 renal, with BT-549 breast and with OVCAR-5 ovarian was more than 10 µM in each case. For the same compound, the TGI with KM12 colon, in the experiment with SK-OV-3 ovarian, in the experiment with HCC-2998 colon, in the experiment with OVCAR-4 ovarian, in the experiment on MCF7 breast and in the experiment with SF-539 CNS was more than 10 µM throughout.

`COC(=O)/C=C\C(C#N)(C#N)N=Cc1sccc1C`: the TGI came out at 3.31 µM in the experiment on LOX IMVI melanoma; 8.69 µM with OVCAR-8 ovarian; 11.3 µM in the experiment with MALME-3M melanoma; 13.4 µM in the experiment with DU-145 prostate; 1.67 µM in the experiment on NCI-H522 lung; 20.1 µM in the experiment on SK-MEL-28 melanoma. The TGI is more than 40.6 µM in the experiment on U251 CNS; 37.1 µM in the experiment on HS 578T breast; more than 24.6 µM with RPMI-8226 leukemia; 6.69 µM in the experiment on HCT-116 colon; 4.12 µM in the experiment on TK-10 renal; 11.1 µM in the experiment with BT-549 breast. In addition, the TGI with OVCAR-5 ovarian came to 14.4 µM; in the experiment with KM12 colon, 30.3 µM; in the experiment with SK-OV-3 ovarian, 34.1 µM; with HCC-2998 colon, 28.6 µM; in the experiment on OVCAR-4 ovarian, 10.3 µM; in the experiment with MCF7 breast, 3.13 µM.

On to `NC1Cc2ccccc2OC1=O` (stereo unspecified), for which the TGI in the experiment with OVCAR-8 ovarian, with MALME-3M melanoma, with DU-145 prostate, in the experiment on NCI-H522 lung, in the experiment on SK-MEL-28 melanoma and with U251 CNS was more than 100 µM each time. For the same compound, the TGI in the experiment with HS 578T breast, in the experiment with RPMI-8226 leukemia, in the experiment on TK-10 renal, with BT-549 breast, in the experiment on OVCAR-5 ovarian and with KM12 colon was more than 100 µM each time. Moreover, the TGI in the experiment with SK-OV-3 ovarian, in the experiment on HCC-2998 colon, with MCF7 breast and in the experiment on SF-539 CNS was more than 100 µM each time.
